The numbers were not newly measured in PMC11272189, “PNA5, A Novel Mas Receptor Agonist, Improves Neurovascular and Blood-Brain-Barrier Function in a Mouse Model of Vascular Cognitive Impairment and Dementia” (Aging and Disease, 2024), which cites them from elsewhere.

This series relates to healthy control mice. The following applies: daily injections at 1mg/kg/day. As to the method:
All use of animals in this study conformed to the guidelines approved by the Institutional Animal Care and Use Committee at the University of Arizona and in accordance with the National Institutes of Health Guidelines for the Care and Use of Laboratory Animals. Both the number of animals used, and their suffering were minimized. The number of animals needed for each experiment was determined using a G*Power analysis. Importantly for the present study, we have shown in previously published studies that treatment of healthy control mice with daily injections of PNA5 or the native peptide ...

Regarding “Angiotensin-(1-7) (DRVYIHP; Angiotensin 1-7; UniProt P01019 25-31, looked up) [Ang-(1-7), native peptide]”, the “effect on heart function, cognitive function or circulating cytokines” value is recorded as “no effect”.
